Measured values: patent publication US20090305954A1, “HISTIDINE-CONTAINING DIASTEREOMERIC PEPTIDES AND USES THEREOF” (Yeda Research and Development Co. Ltd., priority 2005, published 2009)
≈ marks a conversion by molar mass, not a printed value. Square brackets hold non-standard residues; d marks the D form. Peptide text beside a SMILES is read from it.

What was measured:
[1] = tested on: PC3 human prostate cancer cell line; experiment: XTT proliferation (cytotoxicity) assay, PC3; type: cell-based; settings: PC3, pH 7.4, 24 h
Method: (§1) The CL1 human prostate carcinoma (PC) cell line is an androgen-independent (AI) subclone of LNCaP cell line, which was generated by culturing androgen-dependent (AD) LNCaP cells in charcoal-stripped, […], as described (Patel et al. 2000). 22RV1 human PC cells are AI sub-clones of the AD prostatic adenocarcinoma CWR22 xenograft (Sramkoski et al. 1999). CL1 and 22RV1 (ATCC, USA) were grown in RPMI-1640 supplemented with 10% FCS (Biological Industries, Beit Haemek, Israel). PC3 and DU145 are androgen-insensitive (AI) (non-responsive), invasive human prostate cancer cell lines. NIH-3T3 mouse fibroblast cell lines (ATCC, USA) were grown in DMEM supplemented with 10% BS. Murine Lewis lung carcinoma (LLC) cell lines were also grown in DMEM medium supplemented with 10% fetal calf serum and antibiotics under the same conditions as above.
(§2) The anticancer activity of the diastereomers 1, 5 and 11-16, 36-39, 42 and 44 was examined against human CL1 prostate cancer, murine LLC (Lewis lung carcinoma), DU 145 and PC3 cell lines. The cell selectivity of the diastereomeric peptides was also studied by examining their effect on NIH-3T3 normal mouse fibroblasts cell line.
A 96-well plate (Falcon) was used for the XTT proliferation assay. Cancer cells were grown for 24 hours (day 1) in RPMI-1640 medium (5×10^3, 7×10^3, 1×10^4 and 7×10^3 cells/100 μl for LLC, CL1, 22RVI, DU 145 and PC3, respectively) supplemented with 10% fetal calf serum and antibiotics, at 37° C., in humidified atmosphere at 5% CO2 and 95% air, resulting in growth medium pH of 7.4. […]
In day 3, XTT reaction solution was prepared by adding to 100 μl aliquots of activation solution (sodium 3′-[1-(phenyl-aminocarbonyl)-3,4-tetrazolium]-bis(4-methoxy-6-nitro) benzene sulfonic acid hydrate and N-methyl dibenzopyrazine methyl sulfate; mixed in a proportion of 50:1) (protected from light and kept in −20° C.), the substrate. […] The optical density was read at wavelength of 450 nm in an ELISA plate reader. Cell viability was determined relative to the control and final results were recorded. […]

[2] = tested on: pepsin, trypsin, and elastase; experiment: Resistance to proteolytic digestion (reverse-phase HPLC); type: in vitro ADME; settings: after 2 hr, 140 μM peptide, 25 μM protease, 37° C.
Method: In order to reach their target, the diastereomers have to withstand proteolytic digestion of proteases, which may occur after their administration and during the time until they reach the target site. The susceptibility of the peptides 13 and 14 to proteolytic digestion by pepsin (from porcine stomach mucosa, Sigma), trypsin (from bovine pancreas, Sigma), and elastase (from human leukocytes, Sigma) was assessed by reverse-phase HPLC. As a negative control, the all L-amino acid analog peptides were used. Equal amounts of the peptides were dissolved in PBS (35 mM phosphate buffer/0.15 M NaCl, pH 7.3) at a final concentration of 140 μM, to which 25 μM of protease were added. […] After the addition of the appropriate protease inhibitor to stop the reaction, aliquots were injected to C18 column and the amounts of the intact peptides 13 and 14 and their all L analogs were evaluated using their absorbance at 215 nm.

[3] = tested on: DU145 human prostate cancer cell line; experiment: XTT proliferation (cytotoxicity) assay, DU145; type: cell-based
Method: as §1, §2
(§3) A 96-well plate (Falcon) was used for the XTT proliferation assay. Cancer cells were grown for 24 hours (day 1) in RPMI-1640 medium ([…] cells/100 μl for LLC, CL1, 22RVI, DU 145 and PC3, respectively) supplemented with 10% fetal calf serum and antibiotics, at 37° C., in humidified atmosphere at 5% CO2 and 95% air, resulting in growth medium pH of 7.4. NIH-3T3 fibroblast cells (1×10^4 cells/100 μl) were grown in DMEM medium supplemented with 10% bovine calf serum and antibiotics under the same conditions as described above for the cancerous cells. Wells in the last two rows served as blanks (medium only, for measuring the background color of the medium) and 100% survival controls (cells and medium only without treatment), respectively.
(§4) In day 2, the peptides were dissolved in sterile PBS to a concentration of 200 μM (or 500 μM). The medium in the assay wells was replaced with 100 μl serum free medium. For the assays at pH 6, the medium was initially concentrated (×5 or ×10) and then diluted with double distilled water and addition of sodium carbonate. Before reaching the correct dilution, the medium was adjusted to pH 6 and then more water was added to reach the final dilution. The cells were grown in physiological pH, and the acidic pH was used only during the 24 hours incubation with the peptides. A sign for the correct acidity was a light yellow color of the medium. In line A of the plate, 160 μl of serum free medium was added, if the initial peptide concentration was 500 μM.
(§5) Peptide solutions, 100 μl (or 40 μl) were added to each assay well in line A, such that the final concentration of the peptide was […] and the volume 200 μl. The medium in the wells was mixed with multichannel pipette 5 times and 100 μl of it were transferred to the next row of wells (line B), to give a peptide concentration of 50 μM. The double dilution of the peptides continued downstream the plate in the same manner. The plates were then incubated for 24 h.
(§6) In day 3, XTT reaction solution was prepared by adding to 100 μl aliquots of activation solution (sodium 3′-[1-(phenyl-aminocarbonyl)-3,4-tetrazolium]-bis(4-methoxy-6-nitro) benzene sulfonic acid hydrate and N-methyl dibenzopyrazine methyl sulfate; mixed in a proportion of 50:1) (protected from light and kept in −20° C.), the substrate. 50 μl of XTT reaction solution were added to each well and the plates were incubated for 2 hours (37° C. and 5% CO2+95% air. In cases the incubation was not enough for the creation of the color, it was extended for up to 24 hours). The optical density was read at wavelength of 450 nm in an ELISA plate reader. Cell viability was determined relative to the control and final results were recorded. The results were confirmed using replications in at least three independent experiments. […]

22RV1 human PC cells = experiment: XTT proliferation (cytotoxicity) assay, 22RV1; type: cell-based
Method: as §1, §3, §4, §5
In day 3, XTT reaction solution was prepared by adding to 100 μl aliquots of activation solution (sodium 3′-[1-(phenyl-aminocarbonyl)-3,4-tetrazolium]-bis(4-methoxy-6-nitro) benzene sulfonic acid hydrate and N-methyl dibenzopyrazine methyl sulfate; mixed in a proportion of 50:1) (protected from light and kept in −20° C.), the substrate. 50 μl of XTT reaction solution were added to each well and the plates were incubated for 2 hours (37° C. and 5% CO2+95% air. In cases the incubation was not enough for the creation of the color, it was extended for up to 24 hours). The optical density was read at wavelength of 450 nm in an ELISA plate reader. Cell viability was determined relative to the control and final results were recorded. The results were confirmed using replications in at least three independent experiments. The LC50 for each peptide was obtained from the curve of cell viability versus concentration of peptide and taken from the concentration at which cell viability was 50%. The data shown in Table 1 are for only one experiment, but representative of all replications.

[4] = tested on: Murine Lewis lung carcinoma (LLC) cell line; experiment: XTT proliferation (cytotoxicity) assay, LLC; type: cell-based
Method: as §1, §2, §3, §4, §5, §6

[5] = XTT proliferation (cytotoxicity) assay, normal fibroblasts; type: cell-based, mouse; settings: mouse, NIH-3T3 normal mouse fibroblasts; NIH3T3, pH 6, 24 h; read-out: Lethal Concentration (LC50)
Method: as §1, §2, §3, §4, §5, §6

[6] = tested on: NIH-3T3 normal mouse fibroblasts cell line; experiment: as above; type: cell-based; settings: NIH3T3, pH 7.4, 24 h
Method: as §1, §2, §3, §4, §5, §6

[7] = tested on: CL1 human prostate carcinoma cell line; experiment: XTT proliferation (cytotoxicity) assay, CL1; type: cell-based
Method: as §1, §2, §3, §4, §5, §6

SMILES: CC(C)C[C@H](NC(=O)[C@H](CC(C)C)NC(=O)[C@@H](CCCCN)NC(=O)[C@H](CC(C)C)NC(=O)[C@H](CC(C)C)NC(=O)[C@H](Cc1c[nH]cn1)NC(=O)[C@@H](CCCCN)NC(=O)[C@@H](CC(C)C)NC(=O)[C@H](CC(C)C)NC(=O)[C@@H](CCCCN)NC(=O)[C@H](Cc1c[nH]cn1)NC(=O)[C@H](CC(C)C)NC(=O)[C@@H](CC(C)C)NC(=O)[C@H](Cc1c[nH]cn1)NC(=O)[C@@H](N)CC(C)C)C(N)=O [Peptide 14] (H-LH[dL]LH[dK]L[dL][dK]HLL[dK]LL-NH2)
- Lethal Concentration (LC50) [1]: 18.7 µg/mL
- proteases digestion [2]: ~50%
- Lethal Concentration (LC50) ([3]; DU145, pH 6, 24 h): 9.3 µg/mL
- Lethal Concentration (LC50) ([3]; DU145, pH 7.4, 24 h): 12.5 µg/mL
- Lethal Concentration (LC50) (22RV1 human PC cells; 22RV1, pH 6, 24 h): 12.5 µg/mL
- Lethal Concentration (LC50) (22RV1 human PC cells; 22RV1, pH 7.4, 24 h): 25 µg/mL
- Lethal Concentration (LC50) ([4]; pH 6, 24 h): 25 µg/mL
- Lethal Concentration (LC50) ([4]; pH 7.4, 24 h): 50 µg/mL
- CC50 at 24 h [5]: 25 µg/mL (≈ 13.7 µM)
- Lethal Concentration (LC50) [6]: 100 µg/mL
- Lethal Concentration (LC50) ([7]; CL1, pH 6, 24 h): 12.5 µg/mL
- Lethal Concentration (LC50) ([7]; CL1, pH 7.4, 24 h): 12.5 µg/mL
- activity compared with peptide 1 ([7]; CL1 and 22RVI, pH 7.4): half as active
- active concentration lower than against NIH-3T3 ([7]; CL1 vs NIH-3T3, pH 7.4): 8 fold
- active concentration lower than against NIH-3T3 ([7]; CL1 vs NIH-3T3 at the same pH): at least two-fold lower
